From patent publication US7854922B2, “Skin preparation for external use characterized by containing sugar derivative of α, α-trehalose” (Kabushiki Kaisha Hayashibara Seibutsu Kagaku Kenkyujo, priority 2003, dated 2010)

Key:
[1] = tested on: Streptococcus sobrinus 6715; assay: Test for acidic fermentation; assay type: cell-based
Experimental: (§1) The resulting precipitate was washed with Stephan buffer (pH7.0), and centrifuged to collect a bacteria precipitate. Equal volume of Stephan buffer was added to the bacteria precipitate, followed by suspending the precipitate in the buffer to give a final concentration of 50% (v/v) in order to prepare two bacteria suspensions for testing. A half milliliter of the bacteria suspension was admixed with 0.5 ml of the above test saccharide solution and incubated at 37° C. for 90 minutes, while measuring the pH at 5, 15, 30, 60, and 90 minutes after the initiation of the culture. The Stephan's buffer was prepared by admixing 1 ml of “solution A” and “solution B” with distilled water to give a final volume 100 ml, and adjusting to pH7.0 (“solution A”: dissolving 71 g of Na2HPO4, 7.92 g of KOH and 68.1 g of KH2PO4 in distilled water to give a final volume 1,000 ml; and “solution B”: dissolving 45.4 g of KH2PO4, 3.2 g of MgSO4 2H2O and 100 ml of 1.2N HCl in distilled water to give a final volume 1,000 ml).

[2] = tested on: Streptococcus mutans OMZ-176; assay: Test for acidic fermentation; assay type: cell-based
Experimental: as §1

[3] = Browning of L-ascorbic acid kept at 50° C. for 14 days (Experiment 3); assay type: physicochemical
Experimental: An aqueous solution further containing 10 parts by weight of glycerin (concentrated glycerin in cosmetic grade, commercialized by Kao Co., Ltd., Tokyo, Japan) instead of saccharide derivatives of α,α-trehalose was prepared. Three resulting solutions were kept at 50° C. under the shaded condition for 14 days. To examine browning, values of absorbance 420 nm of the test samples were measured by usual method and compared with that of the starting test samples. To examine the degree of coloring, relative values of test samples were calculated by comparing the value of differential absorbance of the solution containing only L-ascorbic acid, defined as 100%. Degree of coloring=(Difference of absorbance of test sample containing saccharide derivatives of α,α-trehalose or glycerin)/(Difference of absorbance of control sample containing only L-ascorbic acid)×100

[4] = tested on: crude water-insoluble glucan producing enzyme; assay: Test for the production of water-insoluble glucan; assay type: biochemical, Streptococcus mutans OMZ-176
Experimental: To examine the effect of the syrup containing saccharide derivatives of α,α-trehalose, prepared in Example 6, on the production of water-insoluble glucan, the following experiment was carried out. According to usual method, Streptococcus mutans OMZ-176 was cultured to prepare a crude water-insoluble glucan producing enzyme solution (25 mg protein/ml). Test saccharide solutions were prepared by dissolving the syrup prepared in Example 1, the syrup prepared in Example 6, or α-maltosyl α,α-trehalose used in Experiment 1 in purified water to give a final concentration 2% on a dry solid basis. A half milliliter of one of the test saccharide solution was admixed with 0.25 ml of the crude water-insoluble glucan producing enzyme solution, 0.75 ml of 0.1 M phosphate buffer, and 0.5 ml of 2% sucrose. The resulting reaction mixture was placed in a new test tube (sized with 10 mm in diameter and 130 mm in height) slanted at an elevation angle of 30 degrees, and kept at 37° C. for 16 hours. The supernatant was gently collected. The remaining precipitate was washed with deionized water by centrifuging twice to collect a precipitate as adherent glucan. The washing solution and the above supernatant was mixed together and centrifuged at 5,000 rpm for 10 minutes to collect precipitate. The resulting precipitate was washed with deionized water and centrifuged to collect a non-adherent glucan. The adherent and non-adherent glucan were weighed. The total weight thereof was calculated as water-insoluble glucan. As a control, distilled water was used instead of the test saccharide solution. The water-insoluble glucan as control were weighed in the same manner. Inhibitory rate (%) of the production of water-insoluble glucan was calculated in such a manner of dividing the value of each test saccharide solution by that of the control, multiplying the resulting value by 100, and subtracting the resulting value from 100.

[5] = Hygroscopicity and solubility in water of the products; assay type: physicochemical
[6] = Test for absorbing or releasing moisture (comparison with usual moisturizing agents); assay type: physicochemical; conditions: 75% sample, after RH 60% for 216 hours
Experimental: The syrup containing saccharide derivatives of α,α-trehalose was confirmed to have a satisfactory property of absorbing and releasing moisture. To compare other saccharide used as a usual moisturizing agent for cosmetics, the following experiment was carried out. Test samples, containing 75%, on a dry solid basis, of either of the syrup prepared in Example 6, concentrated glycerin, sorbitol or maltitol, were prepared. About 1 g of each solution was placed in two containers. The containers were preciously weighed and kept at RH 60% for 216 hours. One of containers was kept at RH 80% and the other container was kept at PH 33%. After 24 hours or 168 hours, they were weighed.

[7] = tested on: Mouse fibroblast cells (L-929); assay: Test for cell protection (Alamar Blue); assay type: cell-based; conditions: 1% in D-MEM before one-hour drying
Experimental: To examine the influence of the syrup containing saccharide derivatives of α,α-trehalose, prepared in Example 6, on cell protection, the following experiment was carried out. […] As controls, control media containing D-MEM supplemented with 10% fetal calf serum and optionally containing 1% glycerin were prepared. The control mediums were added in the medium-removed wells of the remaining four plates, respectively. The cells were cultured for one day, dried for one hour in such a manner of keeping in opened plate under the sterile condition after the medium was removed from the wells by aspiration. Then, the cells were cultured in D-MEM supplemented with 10% fetal calf serum for three days while changing the medium once a day. The resulting plates were subjected to the measurement of cell amount of each well using “Alamar Blue” commercialized by Wako Pure Chemical Industries, Ltd., Osaka, Japan, just after the drying, and four hours, one day, two days or three days after the drying. […] In detail, the medium was added to each well in an amount of 4 ml. One plate was used for each measurement for the amount of cells treated with the test medium or the two control mediums. […] As evidence from the result in Table 10, the test medium or the control media increased the rate of cell proliferation of fibroblast cells. The control medium containing 1% of glycerin increased cell amount almost equal to the control medium containing only D-MEM. […] Influence caused by UV-irradiation was examined in the same manner as above instead of exposure to a drying condition (data not shown).

TNF-α = assay: Production of TNF-α by macrophage cell line RAW264.7 stimulated with IFN-γ and LPS; assay type: cell-based; conditions: data not shown
From the text: Glycerin enhanced the production of TNF-α in a concentration-dependent manner and inhibited the production of ICAM-1 molecule.

[8] = 0.7% test saccharide solution, 37° C., reaction time 0 minute
[9] = reaction time 5 minutes, listed as sucrose
[10] = 2% test saccharide solution with sucrose, 37° C., 16 hours

Row | Compound | pH [1, 8] | pH ([1]; reaction time 5 minutes) | pH ([1]; reaction time 15 minutes) | pH ([1]; reaction time 30 minutes) | pH ([1]; reaction time 60 minutes) | pH ([1]; reaction time 90 minutes) | pH [2, 8] | pH ([2]; reaction time 5 minutes) | pH ([2]; reaction time 15 minutes) | pH ([2]; reaction time 30 minutes) | pH ([2]; reaction time 60 minutes) | pH ([2]; reaction time 90 minutes) | Relative weight change rate (%) ([6]; RH 33%, 0 hour) | Relative weight change rate (%) ([6]; RH 33%, 24 hours) | Relative weight change rate (%) ([6]; RH 33%, 168 hours) | Relative weight change rate (%) ([6]; RH 80%, 0 hour) | Relative weight change rate (%) ([6]; RH 80%, 24 hours) | Relative weight change rate (%) ([6]; RH 80%, 168 hours) | also measured
1 | OC[C@H]1O[C@@](CO)(O[C@H]2O[C@H](CO)[C@@H](O)[C@H](O)[C@H]2O)[C@@H](O)[C@@H]1O [Sucrose, sucrose] | 6.74 | 4.18 | 3.87 | 3.81 | 3.82 | 3.91 | 6.60 | 4.05 | 3.97 | 3.99 | 3.99 | 4.01 | – | – | – | – | – | – | pH [1, 9]: about 4.0; pH [2, 9]: about 4.0
2 | O=C1O[C@H]([C@@H](O)CO)C(O)=C1O [L-Ascorbic acid, L-ascorbic acid] | – | – | – | – | – | – | – | – | – | – | – | – | – | – | – | – | – | – | Absorbance of test sample kept after 14 days (420 nm) ([3]; 50° C., shaded, 14 days): 5.000; Difference of absorbance (420 nm) ([3]; 14 days minus starting): 4.999; Absorbance of starting test sample (420 nm) ([3]; pH 6.5 aqueous solution): 0.001; Degree of coloring (%) ([3]; relative to solution containing only L-ascorbic acid as 100%): 100%
3 | OC[C@H]1O[C@H](O[C@H]2O[C@H](CO)[C@@H](O[C@H]3O[C@H](CO)[C@@H](O[C@H]4O[C@H](CO)[C@@H](O)[C@H](O)[C@H]4O)[C@H](O)[C@H]3O)[C@H](O)[C@H]2O)[C@H](O)[C@@H](O)[C@@H]1O [Example 5, α-maltosyl α,α-trehalose] | 6.72 | 6.70 | 6.64 | 6.58 | 6.51 | 6.43 | 6.72 | 6.70 | 6.64 | 6.58 | 6.51 | 6.43 | – | – | – | – | – | – | Production of water-insoluble glucan, Adhesive glucan [4, 10]: 1120 μg/10 mg sucrose; Production of water-insoluble glucan, Non-adhesive glucan [4, 10]: 1009 μg/10 mg sucrose; Production of water-insoluble glucan, Total glucan [4, 10]: 2129 μg/10 mg sucrose; Inhibition rate of production, Adhesive glucan ([4]; versus distilled water): (50) %; Inhibition rate of production, Non-adhesive glucan ([4]; versus distilled water): (13) %; Inhibition rate of production, Total glucan ([4]; versus distilled water): (37) %; hygroscopicity [5]: low; solubility in water [5]: satisfactory
4 | OC[C@@H](O)[C@@H](O)[C@H](O)[C@@H](O)CO [Sorbitol, sorbitol] | – | – | – | – | – | – | – | – | – | – | – | – | 0.0% | −2.4% | −5.0% | 0.0% | 5.4% | 10.7% | –
5 | OC[C@@H](O)[C@@H](O[C@H]1O[C@H](CO)[C@@H](O)[C@H](O)[C@H]1O)[C@H](O)[C@@H](O)CO [Maltitol, maltitol] | – | – | – | – | – | – | – | – | – | – | – | – | 0.0% | −1.4% | −4.2% | 0.0% | 3.5% | 5.3% | –
6 | OCC(O)CO [Glycerin, glycerin] | – | – | – | – | – | – | – | – | – | – | – | – | 0.0% | −13.8% | −18.8% | 0.0% | 8.2% | – | Rate of cell proliferation (%) ([7]; One day after dried): 165%; Rate of cell proliferation (%) ([7]; One hour (defined as 100%)): 100%; Rate of cell proliferation (%) ([7]; Three days after dried): 243%; Rate of cell proliferation (%) ([7]; Two days after dried): 235%; production of TNF-α (TNF-α): inhibited the production of TNF-α in a concentration-dependent manner
